Results published in US20210284691A1, “CBX8 CHROMDOMAIN INHIBITORS AND THE USES THEREOF” (Purdue Research Foundation, priority 2019, published 2021).
Square brackets hold non-standard residues; d marks the D form. Peptide text beside a SMILES is read from it. * marks the point of attachment. Tyr(3-Cl) = N[C@@H](Cc1ccc(O)c(Cl)c1)C(=O)O; Benzoyl(3,5-Cl2) = O=C(c1cc(Cl)cc(Cl)c1)*; Lys(Et2) = CCN(CC)CCCC[C@H](N)C(=O)O; Gly(cPent) = N[C@H](C(=O)O)C1CCCC1; NH(propargyl) = C#CCN*

Assays:
[1] = system: H3K27me3, AR, ENO2, N-Myc, CBX2 protein levels; experiment: Western blotting of protein expression in VCaP_NED cells; type: cell-based
Description: FIG. 12A). Neuroendocrine differentiation (NED) of prostate cancer induced by androgen deprivation. Representative pictures of LNCaP cells treated with normal media or charcoal-stripped serum (CSS) media for 6 days to induce neuroendocrine differentiation (LNCaP_NED). FIG. 12B). Transcriptional fold changes of KLK3/TMPRSS2/ENO2/CHGA were quantified normalized to control gene YWHAZ upon CSS media treatment for 6 or 9 days. FIG. 12C). Western blotting of CBX paralogs in LNCaP and LNCaP_NED cells generated from 14-day CSS treatment. FIG. 12D). Cell proliferation of LNCaP_NED following 5 days incubation with 2 or 10 μM SW2_152F. DMSO was used as negative control. FIG. 12E). LNCaP_NED cells were treated with 10 μM SW2_152F for 24 h-96 h. Cell morphology pictures were captured starting from 24 h. Average cell size were plotted at 24 h or 48 h for both DMSO group and compound treated group. FIG. 12F). LNCaP_NED cells were treated with 10 μM or 50 μM SW2_152F for 48 hours. Transcriptional fold change of genes (KLK3/TMPRSS2/AR/CBX2) were normalized to YWHAZ in LNCaP_NED cells with SW2_152F treatment or DMSO. FIG. 12G). LNCaP cells were treated with DMSO. LNCaP_NED cells were treated with DMSO, 10 μM GSK343 or 10 μM SW2_152F for 48 hours. Whole cell lysates were extracted for western blotting. FIG. 12H). LNCaP_NED cells were treated with DMSO or 10 μM SW2_152F for 4 hours before harvest. Binding of H3K27me3 and CBX2 at specific genomic sites (KLK3/TMPRSS2, e: enhancer, p: promoter) were evaluated using chromatin immunoprecipitation-qPCR. For all experiments in the figure, error bars represent SEM n=3 biological replicates, p-values were calculated using two-tailed Student's t-test, *=p<0.05, **=p<0.01, ***=p<0.001, ****=p<0.0001.
In another androgen-sensitive prostate cancer cell line, VCaP, 6 days of androgen deprivation decreases AR protein expression and increases ENO2, N-Myc, H3K27me3 and CBX2 protein expression (FIG. 12G), similar to published findings (Y. Zhang, et al., 2018). Using this NED cell line (VCaP_NED), we tested how addition of EZH2 inhibitor GSK343 or CBX2 inhibitor SW2_152F affects protein expression changes during NED.

[2] = target: T1, CBX8 binding to chromatin (Homo sapiens, UniProt Q9HC52); experiment: ChIP-qPCR in Hs68 fibroblast cells; type: cell-based; details: 100 μM, 4 h
T1 construct: endogenous in cells; host or cells: Hs68 fibroblasts (A16); HEK293T (A19); K562 (A23)
T1 sequence (Q9HC52 1-389): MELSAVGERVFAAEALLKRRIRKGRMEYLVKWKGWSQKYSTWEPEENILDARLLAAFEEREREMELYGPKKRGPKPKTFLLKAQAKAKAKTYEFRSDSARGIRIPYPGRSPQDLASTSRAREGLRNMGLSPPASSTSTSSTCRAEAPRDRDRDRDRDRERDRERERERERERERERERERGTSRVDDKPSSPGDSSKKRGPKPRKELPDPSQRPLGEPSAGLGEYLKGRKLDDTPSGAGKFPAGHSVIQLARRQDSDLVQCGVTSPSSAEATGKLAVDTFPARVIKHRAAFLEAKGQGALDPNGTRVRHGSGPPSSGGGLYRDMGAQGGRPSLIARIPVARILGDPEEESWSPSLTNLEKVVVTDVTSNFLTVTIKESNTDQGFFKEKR
Procedure: ChIP: Hs68 cells were seeded at 4×10^6 in a 10 cm cell culture plates 16 hours prior to treatment. […] ChIP was performed as described in Connelly et al., 2018. Birefly, cells were washed with PBS and fixed on the plate with CiA Fix buffer (50 mM HEPES, pH 8.0, 1 mM EDTA, 0.5 mM ETGA, 100 mM NaCl) and 1% formaldehyde for 10 min at room temperature. Crosslinking was quenched with 0.125 M glycine for 5 min at 4° C. Cells were washed once with PBS and lifted off the plate then resuspended in CiA NP Rinse buffer 1 (50 mM HEPES pH 8.0, 140 mM NaCl, 1 mM EDTA, 10% glycerol, 0.5% NP-40, 0.25% Triton X) for 10 min. Cells were pelleted at 1200×g for 5 min at 4° C. The supernatant was removed, and the cells were resuspended in CiA NP rinse buffer 2 (10 mM Tris pH 8.0, 1 mM EDTA, 0.5 mM EGTA, 200 mM NaCl). Cells were collected by centrifugation, 1200×g for 5 min. Supernatant was removed and the cells were washed twice with shearing buffer (0.1% SDS, 1 mM EDTA, 10 mM Tris HCl, pH 8.0). Cells were resuspended in shearing buffer and sonicated for 7 min with the probe (Branson). Lysate was centrifuged at 21,000×g for 15 min to remove debris. Supernatant was collected and pre-cleared overnight with Protein A/G magnetic beads (Pierce). […]
qPCR: qPCR was performed on the isolated ChIP DNA using SYBR master mix (Thermo) and run on the BioRad CFX thermo cycler. […] Enrichment was determined by percent input. […]

CBX8 binding at target loci, ChIP-qPCR [2]: significant reduction of CBX8 binding
SMILES: C#CCNC(=O)[C@H](CO)NC(=O)[C@H](CCCCN(CC)CC)NC(=O)[C@@H](NC(=O)[C@@H](NC(=O)[C@H](Cc1ccc(O)c(Cl)c1)NC(=O)c1cc(Cl)cc(Cl)c1)C1CCCC1)[C@@H](C)CC [SW2_152F] ({Benzoyl(3,5-Cl2)}-[Tyr(3-Cl)][Gly(cPent)]I[Lys(Et2)]S-{NH(propargyl)})
H3K27me3 levels ([1]; 10 μM, 48 hours): does not
AR, ENO2 and N-Myc expression ([1]; compared to DMSO): increase AR and decrease ENO2 and N-Myc expression
